# Reference: patent publication US20230225991A1, “COMPOUNDS FOR USE IN THE TREATMENT OF ACUTE INTERMITTENT PORPHYRIA” (VESTLANDETS INNOVASJONSSELSKAP AS, priority 2019, published 2023)
# How the values were obtained:
# [1] = Solubility in DMSO and in buffer (Table 5); format: physicochemical; details: for Soluble in DMSO (100%): 100% DMSO; for solubility: aqueous buffer, numeric values; for solubility / Solubility in buffer: buffer; for Solubility in buffer: stated in words
# [2] = target: T1, HMBS (Homo sapiens, UniProt P08397); experiment: Octet RED KD determination (Example 21); format: binding; parameters: Full-length HMBS was cloned into pET-28a(+)-TEV vector and transformed into BL21 (DE3) cells for expression; 6xHis (N, cleaved yes); TEV protease cleavage site (N, cleaved yes); made in house; host or cells: E. coli BL21 (DE3); details: steady state analysis, 6.25 to 500 μM, PBS-P+ 5% DMSO
# T1 sequence (P08397 1-361): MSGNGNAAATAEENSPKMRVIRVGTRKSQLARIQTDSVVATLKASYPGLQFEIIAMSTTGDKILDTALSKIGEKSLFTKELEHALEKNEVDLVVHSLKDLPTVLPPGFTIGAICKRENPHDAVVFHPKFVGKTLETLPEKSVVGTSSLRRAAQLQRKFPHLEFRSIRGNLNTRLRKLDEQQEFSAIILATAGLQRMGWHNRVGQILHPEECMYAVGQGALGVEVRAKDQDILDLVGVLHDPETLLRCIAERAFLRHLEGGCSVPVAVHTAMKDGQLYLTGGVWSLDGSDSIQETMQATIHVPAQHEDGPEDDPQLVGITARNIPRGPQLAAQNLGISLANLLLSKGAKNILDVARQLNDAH
# Protocol: Octet RED (Forte Bio) was used for screening binding and determining the KD values of various compounds. OctetRED is based on the technique called Bio-layer interferometry (BLI). It measures changes in an interference pattern generated from visible light reflected from an optical layer and a biolayer containing proteins of interest. In the assay the target protein is biotinylated and coupled as a layer on the optic probe (Super Strepavidin). The concentration series was from 6.25 to 500 μM.
# For the analysis method of KD determination, steady state analysis was used, where the response from steady state of the association phase was used for determining the binding curve for the analyte. Buffer for the analysis was selected to PBS-P+5% DMSO.
# [3] = target: T2, WT-HMBS (Homo sapiens, UniProt P08397); experiment: Octet RED96 KD determination (Example 22); format: binding; details: PBS-P+ 5% DMSO; for Binding: Octet RED96, 3.1 to 150 μM; for Kd: Octet RED96, steady state, sigmoidal fitting, 3.1 to 150 μM
# T2 construct: Full-length HMBS was cloned into pET-28a(+)-TEV vector and transformed into BL21 (DE3) cells for expression; 6xHis (N, cleaved yes); TEV protease cleavage site (N, cleaved yes); made in house; host or cells: E. coli BL21 (DE3)
# T2 sequence (P08397 1-361): T1 sequence (P08397 1-361)
# Protocol: Octet RED96 (Forte Bio) was used for screening binding and determining the KD values for certain compounds. In the assay the target protein (WT-HMBS) was biotinylated and coupled as a layer on the optic probe. The concentration series for the tested compounds were from 3.1 to 150 μM, dissolved in PBS-P+5% DMSO.
# For the analysis method of KD determination, steady state analysis was used in which the response from steady-state of the association phase was used for determining the binding curve for the analyte. KD values were calculated using sigmoidal fitting. The buffer for the analysis was selected to PBS-P+5% DMSO.
# [4] = target: T2, WT-HMBS; experiment: Limited proteolysis by trypsin; format: biochemical; details: Table 3; 84 μM compound, 2% DMSO
# Protocol: Limited proteolysis by trypsin was performed at 37° C. in 20 mM HEPES, 150 mM NaCl, 2% DMSO, pH 8.2, with 0.15 μg/μl HMBS in the absence (DMSO-control) or presence of 84 μM compound and 2% DMSO. The proteolysis was initiated by adding 1 μg/ml TPCK-treated trypsin (Sigma-Aldrich). After 30 min, aliquots were removed and transferred to Laemmli loading buffer containing 2 μg/ml soybean trypsin inhibitor. Samples resolved by electrophoresis with 10% Mini-Protean® TGX™ gels (Bio-Rad Laboratories, Inc.) were analyzed using the Image Lab™ software (Bio-Rad Laboratories, Inc.). The unpaired t-test (two tailed) was performed using GraphPad Prism.
# Limited tryptic proteolysis was also applied to compound BG-1. Proteolysis of WT-HMBS provided three major bands with relative content 34.5±0.3%, 14.7±0.8% and 50.9±0.5%, corresponding to remaining full-length HMBS (˜42.5 kDa), and two fragments of ˜41.0 kDa and ˜31.5 kDa, respectively (FIG. 1). […] The effect of this compound at 84 μM on the steady-state enzyme kinetics of HMBS was then calculated (Table 2).
# [5] = target: T2, WT-HMBS; experiment: DSF thermal upshift (ΔTm) of HMBS; format: binding; details: Table 3, average compound concentration 122 μM (2% DMSO)
# Protocol: Compounds BG-2, BG-3 and BG-4 were tested on recombinant WT-HMBS using DSF and tryptic proteolysis.
# [6] = target: T1, HMBS; experiment: Activity measurements in vitro (Example 23, TECAN plate reader); format: biochemical; details: 5 and 50 μM compound in 2.5% DMSO, 30 min at 37° C., compared to HMBS with DMSO only
# Protocol: Activity measurements were carried out using TECAN plate reader for absorbance measurements. Activity measurements were based on measuring the light absorbance at 405 nm for determining the concentration of formed product, preuroporphyrinogen. Standard curve for measurements was measured using absorbance of known concentrations for Uroporphyrin I dihydrochloride, the cyclic derivative of preuroporphyrinogen. Two concentrations of the compound of Example 14, i.e. 5 and 50 μM in 2.5% DMSO were used. Protein was incubated 30 min in 37° C. with the compound, and mixed with MIX-buffer (50 mM HEPES pH 8, 2.5% DMSO) on Corning 96 well plate (clear bottom, half area, black). The solutions were pre-warmed to 37° C. prior to reaction. Reaction was started by adding PBG and after 5 min the reaction was stopped by adding the STOP solution (5 M HCl and 0.1% p-Benzoquinone mixed 1:1). Wells were covered and protected from light during the whole reaction.
smiles,measurement,setting,value
O=C(c1ccc(OC(F)(F)F)cc1)c1ccc(Cl)c(C(F)(F)F)c1,Soluble in DMSO (100%),[1],Yes
same,solubility,[1],52 µM
O=C(c1ccc(Cl)c([N+](=O)[O-])c1)c1ccc(Cl)c([N+](=O)[O-])c1,KD,[2],mM range (no saturation with 500 μM)
O=C(c1ccc(Cl)cc1)c1cc([N+](=O)[O-])ccc1Cl,Kd,[2],110 µM
O=C(c1ccc(Br)cc1)c1ccc(Cl)c([N+](=O)[O-])c1,KD,[2],mM range (no saturation with 500 μM)
O=C(c1ccncc1)c1ccc(Cl)c([N+](=O)[O-])c1,KD,[2],mM range (no saturation with 500 μM)
COc1ccc(C(O)c2ccc(Cl)c([N+](=O)[O-])c2)cc1 (stereo not drawn),Kd,[2],> 200 µM
O=Cc1cc(Cc2ccccc2Cl)cc(C(F)(F)F)c1O,Binding,[3],Yes
same,Kd,[3],9.3 µM
same,Soluble in DMSO (100%),[1],Yes
same,Solubility in buffer,[1],Yes
O=Cc1cc(Cc2ccccc2Cl)cc([N+](=O)[O-])c1O [drawing 59],Binding,[3],Yes
same,Kd,[3],83 µM
same,Soluble in DMSO (100%),[1],Yes
same,solubility,[1],384 µM
OCc1cc(Cc2ccccc2Cl)cc(C(F)(F)F)c1O [drawing 62],Binding,[3],Yes
same,Kd,[3],90 µM
same,Soluble in DMSO (100%),[1],Yes
same,Solubility in buffer,[1],Yes
O=C(c1ccc(Cl)c(Cl)c1)c1ccc(Cl)c([N+](=O)[O-])c1,Kd,[2],140 µM
O=[N+]([O-])c1cc(Cc2ccccc2Cl)cc(CO)c1O [BG-4],Protection against tryptic proteolysis,[4],"+/− (+/−, ±2%)"
same,ΔTm at 122 µM,[5],4.7 °C
O=Cc1cc(Cc2ccccc2Cl)ccc1O,Kd,[2],190 µM
O=C(c1ccccc1)c1ccc(Cl)c([N+](=O)[O-])c1 [drawing 44],KD,[2],mM range (no
O=C(c1ccc(OCCN2CCCC2)cc1)c1ccc(N2CCCC2)c([N+](=O)[O-])c1,Kd,[2],> 200 µM
CN(C(=O)c1ccc(Cl)c([N+](=O)[O-])c1)c1ccccc1,KD,[2],mM range (no saturation with 500 μM)
O=Cc1cc(Cc2ccccc2Cl)cc([N+](=O)[O-])c1O [drawing 43],Kd,[2],90 µM
Cc1ccc(C(=O)c2ccc(Cl)cc2)cc1[N+](=O)[O-],Kd,[2],7 µM
"OCc1cc(Cc2ccccc2Cl)cc(C(F)(F)F)c1O [Example 14, 4-(2-chlorobenzyl)-2-(hydroxymethyl)-6-(trifluoromethyl) phenol]",HMBS activity in presence of compound,[6],activation of HMBS
COc1ccc(C(=O)c2ccc(Cl)c([N+](=O)[O-])c2)cc1,Kd,[2],300 µM
O=Cc1cc(Cc2ccccc2)cc([N+](=O)[O-])c1O [BG-3],Protection against tryptic proteolysis,[4],"+/− (+/−, ±2%)"
same,ΔTm at 122 µM,[5],6.6 °C
Cc1cccc(C)c1C(=O)c1ccc(Cl)c([N+](=O)[O-])c1,KD,[2],mM range (no saturation with 500 μM)
